In US20220304979A1, “METHODS OF REDUCING DISEASE FLARES” (Chinook Therapeutics, Inc., priority 2019, published 2022):

What was measured:
[1] = test system: primary human renal mesangial cells (HRMCs); assay: proliferation (BrdU) of mesangial cells stimulated with IgA-containing immune complexes; type: cell-based; details: immune complexes purified from three patients with IgA nephropathy
From the text: Primary human mesangial cells in a culture were stimulated with pathogenic galactose deficient (Gd)-IgA containing immune complexes isolated from human IgA nephropathy patients. […] Specifically, pathogenic IgA-containing immune complexes were isolated from serum from either IgA nephropathy patients or age, gender and ethnicity-matched healthy individuals. Frozen serum was purchased from BioIVT and IgA-containing immune complexes were purified using jacalin affinity chromatography. […] Purified IgA-containing immune complexes were concentrated using a 100K Amicon filtration unit and the amount of total IgA and galactose-deficient IgA (Gd-IgA) in the immune complexes was measured by ELISA (ThermoFisher and IBL America, respectively). […] See, e.g., Novak et. al., Kidney International, 67, pp. 504-516; 2005; Novak et. al., Nephrol. Dial. Transplant, 26, pp. 3451-3457; 2011; Liang et. al., Cell Physiol. Biochem., 36, pp. 1793-1808; 2015; Nguyen et. al., Clin. Kidney 1, 12 (2), pp, 232-238; 2019.

[2] = test system: kidney tissue of g-ddY mice; assay: Ingenuity Pathway Analysis (IPA) canonical pathways of kidney RNA-seq, g-ddY mice; type: in vivo, mouse; details: 30 mg/kg/day
[3] = test system: kidney tissue of g-ddY mice; assay: RNA-seq differential gene expression in kidney tissue of g-ddY mice; type: in vivo, mouse
Procedure: RNA isolation and sequencing libraries were generated using standard protocols. Sequencing was performed using an Illumina NextSeq500 using manufacturer's instructions with a read length of 75 bp and a read depth of 30 million. Raw data was assembled to FASTQ files. Following QC analysis, high quality sequencing reads (e.g., reads with a Phred quality score >36) were aligned to the mouse reference genome (GRCm38-mm10) using the default parameters of the align algorithm and transcript count tables of each library was generated using the default parameters of the featureCounts algorithm of the RSubread package (Liao […], Shi W, 2019). High quality sequencing reads mapped to 27,129 genes. Following additional QC of low count filtering (i.e. transcripts <10 counts across all samples), 16,207 genes were identified and used for further analysis. The remaining sequencing read counts of the included 16,207 genes were normalized to library size, log-transformed, and were quantified as counts per million (CPM). Select RNA-seq counts were validated using qPCR. Sequencing read counts (CPM) were used for identification of differential gene expression between specified populations using the quasi-likelihood methodology of the edgeR package. […] MA plots were generated using edgeR. Heatmaps and other plots were generated using the gplots and ggplot2 package.

g-ddY mice = assay: albuminuria (UACR) in g-ddY mouse model of IgA nephropathy; type: in vivo; details: for albuminuria compared to baseline: approximately 5 days
From the text: The grouped ddY (g-ddY) mouse is a spontaneous model of early-onset IgA nephropathy characterized by IgA immune complex deposition in the mesangium of the kidney, leading to significant proteinuria, glomerular hypercellularity, mesangioproliferative glomerular lesions, glomerular sclerosis and reduced kidney function, all hallmarks of human IgA nephropathy (J Am Soc Nephrol 23: 1364-1374, 2012). Consistent with human IgA nephropathy, the mesangial IgA deposits in the g-ddY mouse are also accompanied by deposition of IgG and complement C3.

[4] = patients with diabetic kidney disease (DKD); cited from earlier work
[5] = atrasentan 10 mg/kg/day vs 0 mg/kg/day (control), g-ddY mice
[6] = atrasentan 20 mg/kg/day vs 0 mg/kg/day (control), g-ddY mice
[7] = atrasentan 30 mg/kg/day vs 0 mg/kg/day (control), g-ddY mice

SMILES: CCCCN(CCCC)C(=O)CN1C[C@H](c2ccc3c(c2)OCO3)[C@@H](C(=O)O)[C@@H]1c1ccc(OC)cc1 [atrasentan, (2R,3R,4S)-4-(1,3-benzodioxol-5-yl)-1-[2-(dibutylamino)-2-oxoethyl]-2-(4-methoxyphenyl)pyrrolidine-3-carboxylic acid]
- hyperproliferation of HRMCs induced by IgA containing immune complexes [1]: significantly attenuated the hyperproliferation
- signaling pathways by IPA analysis [2]: reduced NF-κB signaling, IL-6 pathway signaling (e.g., STAT3), and PDGF signaling
- ET1 gene signature genes downregulated versus untreated control ([3]; 10 mg/kg/day): Grk5, Mllt3, Klf2, Pparg, Hgf, Edn1, Fos, Ptgs2, and IL-1b
- ET1 gene signature genes upregulated versus untreated control ([3]; 10 mg/kg/day): Ccnd1, Ppara, Agt, Map2k2 and Hoxa9
- ET1 gene signature genes downregulated versus untreated control ([3]; 20 mg/kg/day): Nfatc1, Grk5, Klf2, Cav1, Pparg, Itga5, Myc, Ednra, Sell, Hgf, Mmp2, Edn1, Syk, Fos, and IL-1b
- ET1 gene signature genes upregulated versus untreated control ([3]; 20 mg/kg/day): Ccdn1, Cat, Ppara, Map2k2, Hoxa9, Agt, and Egfr
- ET1 gene signature genes downregulated versus untreated control ([3]; 30 mg/kg/day): Ednrb, Myc, Mllt3, Hdac7, Ednra, Itga5, Grk5, Pparg, Klf2, Hgf, Mmp2, Sell, Sphk1, Fos, Syk, Edn1, and IL-1b
- ET1 gene signature genes upregulated versus untreated control ([3]; 30 mg/kg/day): Ccnd1, Agt, Cat, Map2k2, Hoxa9, and Ppara
- gene expression of Ednra and Ednrb ([3]; 30 mg/kg/day): downregulated
- gene expression of ET1 (End1) ([3]; all three doses (10, 20, 30 mg/kg/day)): downregulated
- logFC Ahnak gene expression [3, 5]: −0.5756
- logFC Akap12 gene expression [3, 5]: −0.2687
- logFC Akt3 gene expression [3, 5]: −0.3863
- logFC Aldob gene expression [3, 5]: 0.4194
- logFC Ankrd12 gene expression [3, 5]: −0.2824
- logFC C7 gene expression [3, 5]: −0.7767
- logFC Caldl gene expression [3, 5]: −0.3719
- logFC Cblb gene expression [3, 5]: −0.082
- logFC Ebfl gene expression [3, 5]: −0.3301
- logFC Epb4112 gene expression [3, 5]: −0.4375
- logFC Etsl gene expression [3, 5]: −0.2198
- logFC Fchsd2 gene expression [3, 5]: −0.2564
- logFC Frmd4a gene expression [3, 5]: −0.2838
- logFC Gata3 gene expression [3, 5]: −0.4822
- logFC Gpx3 gene expression [3, 5]: 0.6802
- logFC Igfbp7 gene expression [3, 5]: 0.2052
- logFC Lama2 gene expression [3, 5]: −0.2955
- logFC Maml2 gene expression [3, 5]: −0.2318
- logFC Mef2c gene expression [3, 5]: −0.6217
- logFC Meisl gene expression [3, 5]: −0.2507
- logFC Myh9 gene expression [3, 5]: −0.2094
- logFC Myole gene expression [3, 5]: −0.2349
- logFC Nbea gene expression [3, 5]: −0.2819
- logFC Nr4a1 gene expression [3, 5]: −1.525
- logFC Piezo2 gene expression [3, 5]: −0.4078
- logFC Postn gene expression [3, 5]: −1.385
- logFC Pparg gene expression [3, 5]: −0.6129
- logFC Ppp1r12a gene expression [3, 5]: −0.1995
- logFC Prkgl gene expression [3, 5]: −0.2187
- logFC Psd3 gene expression [3, 5]: −0.3544
- logFC Ptprm gene expression [3, 5]: −0.2614
- logFC Rapgef5 gene expression [3, 5]: −0.2732
- logFC Raphl gene expression [3, 5]: −0.2965
- logFC Rbms3 gene expression [3, 5]: −0.5749
- logFC Robol gene expression [3, 5]: −0.4803
- logFC Stard13 gene expression [3, 5]: −0.7224
- logFC Tacc1 gene expression [3, 5]: −0.2449
- logFC Tcf4 gene expression [3, 5]: −0.2176
- logFC Tjpl gene expression [3, 5]: −0.2489
- logFC Tns3 gene expression [3, 5]: −0.2638
- logFC Unc5c gene expression [3, 5]: 0.5618
- logFC Utrn gene expression [3, 5]: −0.49
- logFC Zeb2 gene expression [3, 5]: −0.5638
- logFC Ahnak gene expression [3, 6]: −0.7128
- logFC Akap12 gene expression [3, 6]: −0.5404
- logFC Akt3 gene expression [3, 6]: −0.4673
- logFC Aldob gene expression [3, 6]: 0.4923
- logFC Ankrd12 gene expression [3, 6]: −0.2463
- logFC C7 gene expression [3, 6]: −1.277
- logFC Caldl gene expression [3, 6]: −0.5361
- logFC Cblb gene expression [3, 6]: −0.2068
- logFC Ebfl gene expression [3, 6]: −0.3512
- logFC Epb4112 gene expression [3, 6]: −0.6149
- logFC Etsl gene expression [3, 6]: −0.3065
- logFC Fchsd2 gene expression [3, 6]: −0.1882
- logFC Frmd4a gene expression [3, 6]: −0.3955
- logFC Gata3 gene expression [3, 6]: −0.4924
- logFC Gpx3 gene expression [3, 6]: 0.71
- logFC Igfbp7 gene expression [3, 6]: 0.1088
- logFC Lama2 gene expression [3, 6]: −0.4437
- logFC Maml2 gene expression [3, 6]: −0.2311
- logFC Mef2c gene expression [3, 6]: −0.6302
- logFC Meisl gene expression [3, 6]: −0.3593
- logFC Myh9 gene expression [3, 6]: −0.4543
- logFC Myole gene expression [3, 6]: −0.292
- logFC Nbea gene expression [3, 6]: −0.1933
- logFC Piezo2 gene expression [3, 6]: −0.6148
- logFC Postn gene expression [3, 6]: −2.293
- logFC Pparg gene expression [3, 6]: −0.5616
- logFC Ppp1r12a gene expression [3, 6]: −0.2135
- logFC Prkgl gene expression [3, 6]: −0.328
- logFC Psd3 gene expression [3, 6]: −0.5227
- logFC Ptprm gene expression [3, 6]: −0.2678
- logFC Rapgef5 gene expression [3, 6]: -0.3804
- logFC Raphl gene expression [3, 6]: −0.3852
- logFC Rbms3 gene expression [3, 6]: −0.7192
- logFC Robol gene expression [3, 6]: −0.7261
- logFC Stard13 gene expression [3, 6]: −0.6367
- logFC Tacc1 gene expression [3, 6]: −0.3693
- logFC Tcf4 gene expression [3, 6]: −0.224
- logFC Tjpl gene expression [3, 6]: −0.3054
- logFC Tns3 gene expression [3, 6]: −0.3043
- logFC Unc5c gene expression [3, 6]: 0.3685
- logFC Utrn gene expression [3, 6]: −0.5143
- logFC Zeb2 gene expression [3, 6]: −0.6492
- logFC Ahnak gene expression [3, 7]: −1.013
- logFC Akap12 gene expression [3, 7]: −0.8211
- logFC Akt3 gene expression [3, 7]: −0.4843
- logFC Aldob gene expression [3, 7]: 0.748
- logFC Ankrd12 gene expression [3, 7]: −0.4726
- logFC C7 gene expression [3, 7]: −1.079
- logFC Caldl gene expression [3, 7]: −0.506
- logFC Cblb gene expression [3, 7]: −0.4288
- logFC Ebfl gene expression [3, 7]: −0.4506
- logFC Epb4112 gene expression [3, 7]: −0.7021
- logFC Etsl gene expression [3, 7]: −0.3379
- logFC Fchsd2 gene expression [3, 7]: −0.3772
- logFC Frmd4a gene expression [3, 7]: −0.5742
- logFC Gata3 gene expression [3, 7]: −0.5216
- logFC Gpx3 gene expression [3, 7]: 1.122
- logFC Igfbp7 gene expression [3, 7]: 0.4259
- logFC Lama2 gene expression [3, 7]: −0.4895
- logFC Maml2 gene expression [3, 7]: −0.4441
- logFC Mef2c gene expression [3, 7]: −0.6869
- logFC Meisl gene expression [3, 7]: −0.4934
- logFC Myh9 gene expression [3, 7]: −0.6171
- logFC Myole gene expression [3, 7]: −0.4177
- logFC Nbea gene expression [3, 7]: −0.432
- logFC Piezo2 gene expression [3, 7]: −0.8237
- logFC Postn gene expression [3, 7]: −1.247
- logFC Pparg gene expression [3, 7]: −0.6781
- logFC Ppp1r12a gene expression [3, 7]: −0.3826
- logFC Prkgl gene expression [3, 7]: −0.6356
- logFC Psd3 gene expression [3, 7]: −0.5843
- logFC Ptprm gene expression [3, 7]: −0.5453
- logFC Rapgef5 gene expression [3, 7]: −0.4225
- logFC Raphl gene expression [3, 7]: −0.5358
- logFC Rbms3 gene expression [3, 7]: −0.8895
- logFC Robol gene expression [3, 7]: −0.6009
- logFC Stard13 gene expression [3, 7]: −0.8466
- logFC Tacc1 gene expression [3, 7]: −0.4924
- logFC Tcf4 gene expression [3, 7]: −0.3055
- logFC Tjpl gene expression [3, 7]: −0.3989
- logFC Tns3 gene expression [3, 7]: −0.4522
- logFC Unc5c gene expression [3, 7]: 0.9517
- logFC Utrn gene expression [3, 7]: −0.7697
- logFC Zeb2 gene expression [3, 7]: −0.6778
- effect to reduce UACR from baseline compared to control group (g-ddY mice; 10 mg/kg/day): not significant
- effect to reduce UACR from baseline compared to control group (g-ddY mice; 20 mg/kg/day, P=0.0498, un-paired t-test): statistically significant compared to the control group
- albuminuria compared to baseline (g-ddY mice; 20 mg/kg/day, just failed statistical significance (P=0.0593)): reduced from baseline to a similar extent
- effect to reduce UACR from baseline compared to control group (g-ddY mice; 30 mg/kg/day, P=0.029): statistically significant compared to the control group
- albuminuria compared to baseline (g-ddY mice; 30 mg/kg/day, paired t-test): significantly (P=0.0002, paired two-sided t-test) reduced albuminuria from baseline
- risk of renal events (doubling of serum creatinine or end-stage kidney disease) [4]: significantly reducing the risk of renal events
